In ChEMBL document CHEMBL6153052, “Development of molecular Trojan horses targeting New Delhi metallo-β-lactamase-1 for the restoration of meropenem susceptibility in drug-resistant bacteria” (Eur J Med Chem, 2025):
Values after ≈ are worked out from the molar mass of the structure shown. Active and inactive are the calls of the source. The rule behind the calls is not given here.

What was measured:
[1] = target: T1, Metallo-beta-lactamase type 2 (Bacteria, UniProt C7C422); experiment: Inhibition of NDM-1 (unknown origin) using nitrocefin as substrate assessed as residual activity preincubated for 15 mins followed by substrate addition by absorbance based assay
T1 sequence (C7C422 whole entry): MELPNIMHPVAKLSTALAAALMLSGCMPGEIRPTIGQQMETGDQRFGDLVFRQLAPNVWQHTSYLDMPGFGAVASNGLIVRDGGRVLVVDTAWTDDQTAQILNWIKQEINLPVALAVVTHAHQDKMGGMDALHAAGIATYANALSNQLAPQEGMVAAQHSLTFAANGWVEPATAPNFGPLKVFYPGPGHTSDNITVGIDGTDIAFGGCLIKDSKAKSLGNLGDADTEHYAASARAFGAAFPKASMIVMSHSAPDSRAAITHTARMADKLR

[2] = target: Metallo-beta-lactamase type 2 (Bacteria) (UniProt C7C422); experiment: Inhibition of NDM-1 (unknown origin) using nitrocefin as substrate assessed as residual activity at 64 ug/ml preincubated for 15 mins followed by substrate addition by absorbance based assay relative to control; settings: dose 64.0 µg/ml
Metallo-beta-lactamase type 2 (Bacteria), sequence (C7C422 whole entry): as above

Escherichia coli [3] = experiment: Antibacterial activity against Escherichia coli ZJ487 infected in BALB/c mouse assessed as reduction in bacterial count in spleen at 10 mg/kg, sc administered at every 12 hr interval measured after 42 hrs; assay type: functional, organism-based
Escherichia coli [4] = experiment: Antibacterial activity against Escherichia coli ZJ487 infected in BALB/c mouse assessed as reduction in bacterial count in liver at 10 mg/kg, sc administered at every 12 hr interval measured after 42 hrs; assay type: functional, organism-based
Acinetobacter baumannii [5] = experiment: Antibacterial activity against Acinetobacter baumannii aba assessed as minimum bacteriostatic concentration incubated for 20 hrs; assay type: functional
Klebsiella pneumoniae [6] = experiment: Antibacterial activity against Klebsiella pneumoniae K-N-1 assessed as minimum bacteriostatic concentration incubated for 20 hrs; assay type: functional
[7] = target: T1, Metallo-beta-lactamase type 2; experiment: Inhibition of NDM-1 (unknown origin)
Escherichia coli [8] = experiment: Synergistic bactericidal activity against Escherichia coli ZJ487 at 16 ug/ml incubated for 8 hrs in presence of meropenem; assay type: functional, organism-based; settings: dose 16.0 µg/ml
[9] = Metabolic stability in rat plasma assessed as parent compound remaining measured after 48 hrs by HPLC analysis; assay type: ADME, cell-free; settings: read-out: Stability
Klebsiella pneumoniae [10] = experiment: Synergistic antibacterial activity against Klebsiella pneumoniae K-N-1 assessed as fractional inhibitory concentration index at 8 ug/ml incubated for 20 hrs in presence of meropenem; assay type: functional; settings: dose 8 µg/ml
Escherichia coli [11] = experiment: Antibacterial activity against Escherichia coli BL21 assessed as minimum bacteriostatic concentration incubated for 20 hrs; assay type: functional
Acinetobacter baumannii [12] = experiment: Synergistic antibacterial against Acinetobacter baumannii aba assessed as fractional inhibitory concentration index at 8 ug/ml incubated for 20 hrs in presence of meropenem; assay type: functional; settings: dose 8 µg/ml
Escherichia coli [13] = experiment: Synergistic antibacterial activity against Escherichia coli BL21 assessed as fractional inhibitory concentration index at 8 ug/ml incubated for 20 hrs in presence of meropenem; assay type: functional; settings: dose 8 µg/ml
[14] = Cytotoxicity against HEK293T cells assessed as survival rate at 128 ug/ml incubated for 48 hrs by MTT assay; assay type: toxicity, cell-based, HEK-293T; settings: human, at 128 µg/mL, read-out: Survival
Escherichia coli [15] = experiment: Synergistic antibacterial activity against Escherichia coli BL21 assessed as minimum bacteriostatic concentration of meropenem at 8 ug/ml incubated for 20 hrs; assay type: functional; settings: dose 8 µg/ml
Klebsiella pneumoniae [16] = experiment: Synergistic antibacterial activity against Klebsiella pneumoniae K-N-1 assessed as minimum bacteriostatic concentration of meropenem at 8 ug/ml incubated for 20 hrs; assay type: functional; settings: dose 8 µg/ml
Escherichia coli [17] = experiment: Synergistic antibacterial activity against Escherichia coli ZJ487 infected in BALB/c mouse assessed as reduction in bacterial count in spleen at 10 mg/kg, sc administered at every 12 hr interval measured after 42 hrs in presence of meropenem; assay type: functional, organism-based
Escherichia coli [18] = experiment: Synergistic antibacterial activity against Escherichia coli ZJ487 infected in BALB/c mouse assessed as reduction in bacterial count in liver at 10 mg/kg, sc administered at every 12 hr interval measured after 42 hrs in presence of meropenem; assay type: functional, organism-based
Escherichia coli [19] = experiment: Synergistic antibacterial activity against Escherichia coli ZJ487 assessed as fractional inhibitory concentration index upto 64 ug/ml incubated for 24 hrs in presence of meropenem by microdilution checkerboard analysis; assay type: functional; settings: dose <= 64 µg/ml
Escherichia coli [20] = experiment: Synergistic antibacterial activity against Escherichia coli ZJ487 assessed as minimum bacteriostatic concentration of meropenem at 8 ug/ml incubated for 20 hrs; assay type: functional; settings: dose 8 µg/ml
Acinetobacter baumannii [21] = experiment: Synergistic antibacterial against Acinetobacter baumannii aba assessed as minimum bacteriostatic concentration of meropenem at 8 ug/ml incubated for 20 hrs; assay type: functional; settings: dose 8 µg/ml
Escherichia coli [22] = experiment: Synergistic antibacterial activity against Escherichia coli BL21 expressing NDM-1 assessed as fractional inhibitory concentration index upto 64 ug/ml incubated for 24 hrs in presence of meropenem by microdilution checkerboard analysis; assay type: functional; settings: dose <= 64 µg/ml
Escherichia coli [23] = experiment: Synergistic antibacterial activity against Escherichia coli ZJ487 assessed as fractional inhibitory concentration index at 8 ug/ml incubated for 20 hrs in presence of meropenem; assay type: functional; settings: dose 8 µg/ml
[24] = Metabolic stability in rat liver homogenate assessed as parent compound remaining measured after 48 hrs by HPLC analysis; assay type: ADME, tissue-based; settings: read-out: Stability
Escherichia coli [25] = experiment: Synergistic bactericidal activity against Escherichia coli BL21 expressing NDM-1 at 16 ug/ml incubated for 8 hrs in presence of meropenem; assay type: functional, organism-based; settings: dose 16.0 µg/ml
THP-1 = experiment: Cytotoxicity against human THP-1 cells assessed as survival rate at 128 ug/ml incubated for 48 hrs by MTT assay; assay type: functional; settings: read-out: Survival
Escherichia coli [26] = experiment: Antibacterial activity against Escherichia coli ZJ487 assessed as minimum bacteriostatic concentration incubated for 20 hrs; assay type: functional
[27] = target: T1, Metallo-beta-lactamase type 2; experiment: Inhibition of C-terminal His-tagged NDM-1 (unknown origin) extracted from Escherichia coli BL21 (DE3) using fluorescent cephalosporin as substrate preincubated for 10 mins followed by substrate addition by fluorescence based assay

O=C(O)C1=C(C[Se]c2ccccc2C(=O)Nc2ccccc2)CS[C@@H]2[C@H](NCc3cc(F)cc(Cl)c3)C(=O)N12
IC50 [1]: 77.8 µM | Activity [2]: 27.8%

O=C(O)C1=C(C[Se]c2ccccc2C(=O)Nc2ccccc2)CS[C@@H]2[C@H](NCc3cccc(Cl)c3)C(=O)N12
Activity [2]: 60.9%

O=C(Cc1ccccc1)N[C@@H]1C(=O)N2C(C(=O)O)=C(C[Se]c3ccccc3C(=O)Nc3ccccc3)CS[C@H]12
IC50 [1]: 90.3 µM | Activity [2]: 23.9%

O=C(O)C1=C(C[Se]c2ccccc2C(=O)Nc2ccccc2)CS[C@@H]2[C@H](NS(=O)(=O)c3ccccc3)C(=O)N12
Activity [2]: 48.4%

C[C@@H](O)[C@H]1C(=O)N2C(C(=O)O)=C(S[C@@H]3CN[C@H](C(=O)N(C)C)C3)[C@H](C)[C@H]12 [MEROPENEM]
Activity (Escherichia coli [3]): inactive | Activity (Escherichia coli [4]): inactive | MIC (Acinetobacter baumannii [5]): > 512 µg/mL | MIC (Klebsiella pneumoniae [6]): > 512 µg/mL

O=c1c2ccccc2[se]n1-c1ccccc1 [EBSELEN]
IC50 [1]: 16 µM | Activity [2]: 8.05%

Cc1cc(C)cc(CN[C@@H]2C(=O)N3C(C(=O)O)=C(C[Se]c4ccccc4C(=O)Nc4ccccc4)CS[C@H]23)c1
Activity [2]: 69.3%

CC1=C(C(=O)O)N2C(=O)[C@@H](NCc3cc(Cl)cc(Cl)c3)[C@H]2SC1
Activity [2]: 99.6%

O=C(O)C1=C(C[Se]c2ccccc2C(=O)Nc2ccccc2)CS[C@@H]2[C@H](NCc3cc(Cl)nc(Cl)c3)C(=O)N12
Activity [2]: 68.1%

O=C(O)C1=C(C[Se]c2ccccc2C(=O)Nc2ccccc2)CS[C@@H]2[C@H](NCc3cccs3)C(=O)N12
IC50 [1]: 52.9 µM | Activity [2]: 25.2%

COc1cc(Cl)cc(CN[C@@H]2C(=O)N3C(C(=O)O)=C(C[Se]c4ccccc4C(=O)Nc4ccccc4)CS[C@H]23)c1
Activity [2]: 37.9%

CC(=O)N[C@@H]1C(=O)N2C(C(=O)O)=C(C[Se]c3ccccc3C(=O)Nc3ccccc3)CS[C@H]12
Activity [2]: 88.2%

O=C(O)C1=C(C[Se]c2ccccc2C(=O)Nc2ccccc2)CS[C@@H]2[C@H](NCc3ccc(Cl)cc3)C(=O)N12
Activity [2]: 54%

O=C(O)C1=C(C[Se]c2ccccc2C(=O)Nc2ccccc2)CS[C@@H]2[C@H](NC(=O)c3cccs3)C(=O)N12
Activity [2]: 49.5%

O=C(O)C1=C(C[Se]c2ccccc2C(=O)Nc2ccccc2)CS[C@@H]2[C@H](NCc3ccccc3Cl)C(=O)N12
Activity [2]: 66.2%

CCN(CC)[C@@H]1C(=O)N2C(C(=O)O)=C(C[Se]c3ccccc3C(=O)Nc3ccccc3)CS[C@H]12
Activity [2]: 70.2%

CS(=O)(=O)N[C@@H]1C(=O)N2C(C(=O)O)=C(C[Se]c3ccccc3C(=O)Nc3ccccc3)CS[C@H]12
IC50 [1]: 69.7 µM | Activity [2]: 48.9%

Cc1cc(Cl)cc(CN[C@@H]2C(=O)N3C(C(=O)O)=C(C[Se]c4ccccc4C(=O)Nc4ccccc4)CS[C@H]23)c1
IC50 [1]: 72.9 µM | Activity [2]: 30%

N#CCC(=O)N[C@@H]1C(=O)N2C(C(=O)O)=C(C[Se]c3ccccc3C(=O)Nc3ccccc3)CS[C@H]12
Activity [2]: 61.7%

O=C(Cc1ccccc1)N[C@H]1C(=O)N2C(C(=O)O)=C(C[S+]([O-])CCC(=O)Oc3c(F)c(F)c(F)c(F)c3F)C[S+]([O-])[C@@H]12 (stereo not given in full)
IC50 [7]: 0.39 µM

O=c1c2ccccc2[se]n1-c1ncccc1-c1ccc(F)cc1
IC50 [7]: 11.3 µM

O=C(O)C1=C(C[Se]c2ccccc2C(=O)Nc2ccccc2)CS[C@@H]2[C@H](NC(=O)n3cnnn3)C(=O)N12
Activity [2]: 72.9%

O=C(O)C1=C(C[Se]c2ccccc2C(=O)Nc2ccccc2)CS[C@@H]2[C@H](NCC3CC3)C(=O)N12
Activity [2]: 78.2%

N#Cc1cc(Cl)cc(CN[C@@H]2C(=O)N3C(C(=O)O)=C(C[Se]c4ccccc4C(=O)Nc4ccccc4)CS[C@H]23)c1
Activity [2]: 42.3%

O=C(O)C1=C(C[Se]c2ccccc2C(=O)Nc2ccccc2)CS[C@@H]2[C@H](NCc3cc(C(F)(F)F)cc(C(F)(F)F)c3)C(=O)N12
Activity [2]: 61.6%

O=C(O)C1=C(C[Se]c2ccccc2C(=O)Nc2ccccc2)CS[C@@H]2[C@H](NCc3cc(F)cc(F)c3)C(=O)N12
Activity [2]: 41.1%

COc1cc(CN[C@@H]2C(=O)N3C(C(=O)O)=C(C[Se]c4ccccc4C(=O)Nc4ccccc4)CS[C@H]23)cc(OC)c1
Activity [2]: 55.8%

CCOC(=O)[C@]1(CS)C[C@H](C(=O)O)C(C)(C)S1
IC50 [7]: 0.04 µM

O=C(O)C1=C(C[Se]c2ccccc2C(=O)Nc2ccccc2)CS[C@@H]2[C@H](NC(=O)C3CC3)C(=O)N12
IC50 [1]: 150 µM | Activity [2]: 47.3%

O=C(O)C1=C(C[Se]c2ccccc2C(=O)Nc2ccccc2)CS[C@@H]2[C@H](NS(=O)(=O)C3CC3)C(=O)N12
IC50 [1]: 114 µM | Activity [2]: 44.1%

O=C(O)C1=C(C[Se]c2ccccc2C(=O)Nc2ccccc2)CS[C@@H]2[C@H](NCc3cc(Cl)cc(Cl)c3)C(=O)N12
Activity (Escherichia coli [8]): Not active; Compound Did Not Eradicate Bacteria Completely But Maintained A State Of Significantly Lower Level Compared To Meropenem Alone | remaining at 48 h [9]: > 80% | fractional inhibitory concentration index (FICI) (Klebsiella pneumoniae [10]): 0.281 | MIC (Escherichia coli [11]): 128 µg/mL (≈ 198 µM) | fractional inhibitory concentration index (FICI) (Acinetobacter baumannii [12]): 0.078 | fractional inhibitory concentration index (FICI) (Escherichia coli [13]): 0.141 | viability at 48 h, 128 ug/ml [14]: > 100% | Activity (Escherichia coli [3]): inactive | MIC (Escherichia coli [15]): 16 µg/mL | MIC (Klebsiella pneumoniae [16]): 16 µg/mL | Activity (Escherichia coli [4]): inactive | IC50 [1]: 7.03 µM | Activity [2]: 6.53% | Activity (Escherichia coli [17]): Active | Activity (Escherichia coli [18]): Active | fractional inhibitory concentration index (FICI) (Escherichia coli [19]): 0.125 | MIC (Escherichia coli [20]): 1 µg/mL | MIC (Acinetobacter baumannii [21]): 32 µg/mL | fractional inhibitory concentration index (FICI) (Escherichia coli [22]): 0.25 | fractional inhibitory concentration index (FICI) (Escherichia coli [23]): 0.093 | remaining at 48 h [24]: 59.3% | MIC (Acinetobacter baumannii [5]): > 512 µg/mL | Activity (Escherichia coli [25]): Not active; Compound Did Not Eradicate Bacteria Completely But Maintained A State Of Significantly Lower Level Compared To Meropenem Alone | MIC (Klebsiella pneumoniae [6]): 64 µg/mL (≈ 98.9 µM) | viability at 128 µg/mL (THP-1): > 100% | MIC (Escherichia coli [26]): 32 µg/mL (≈ 49.4 µM)

O=C(O)C1=C(C[Se]c2ccccc2C(=O)Nc2ccccc2)CS[C@@H]2[C@H](NS(=O)(=O)c3cccs3)C(=O)N12
Activity [2]: 51.6%

O=C(O)C1=C(C[Se]c2ccccc2C(=O)Nc2ccccc2)CS[C@@H]2[C@H](NS(=O)(=O)Cc3ccccc3)C(=O)N12
Activity [2]: 63.8%

O=C(Cc1ccccc1)N[C@@H]1C(=O)N2C(C(=O)O)=C(CSc3cccc4cccnc34)CS[C@H]12
IC50 [27]: 2.31 µM

O=C(O)C1=C(C[Se]c2ccccc2C(=O)Nc2ccccc2)CS[C@@H]2[C@H](NC(=O)c3ccccc3)C(=O)N12
IC50 [1]: 62.2 µM | Activity [2]: 22.3%

CC(C)(C)OC(=O)NCCCCCCn1[se]c2ccccc2c1=O
IC50 [7]: 1.26 µM

O=C(O)C1=C(C[Se]c2ccccc2C(=O)Nc2ccccc2)CS[C@@H]2[C@H](NCc3ccccc3)C(=O)N12
IC50 [1]: 37.8 µM | Activity [2]: 17.8%
